Assay: recombinant UMI read abundance after kanamycin selection (control-corrected) (log10(CPM+1)); higher = more efficient recombination; extreme values may be limits of the assay; sequences stand for … in AGTGCAGAGAAAATCGGCCAGTTTTCTCTGCCTGCAGTCCGCATGCCGTGGGACCCCTTGGGTTCTAACCTGTTGCCTAGATTTATGCAGCGGACTGCCTTTCTCCCAAAGTGATAAACCGG…AGGTTGGTTTCACT; site = the 11-nt donor
Summary of the method: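 Reported values are log10(CPM+1) from a pooled Escherichia coli screen of donor and donor-binding-loop pairs for the IS621 bridge recombinase. Selection used IPTG (0.07 mM) plus kanamycin, against unselected plating, each in two replicates. Recombinant UMIs were amplified across the donor–target junction, sequenced, converted to CPM, averaged over replicates and scaled by control-derived factors.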
For “CGATCCTCATGGACCGGTTTTCCCGGTAATCCGTATTTGCT (site CGATCGTCTAG)”, the “recombinant UMI read abundance (log10)” value was 0.
In the case of “TGTGCGGCATGGACCGGTTTTCCCGGTAATCCGTATTTGCT (site TCTGCGGCTAG)”, the “recombinant UMI read abundance (log10)” value is reported as 0.00448.
With “GTAGATACATGGACCGGTTTTCCCGGTAATCCGTATTTGAC (site GTAGATACTGT)” the “recombinant UMI read abundance (log10)” value was 2.29.
In the case of “TGACGTACATGGACCGGTTTTCCCGGTAATCCGTATTTGTC (site TGACGTACTGA)”, the “recombinant UMI read abundance (log10)” value is reported as 0.893.
With “AGCTCACCATGGACCGGTTTTCCCGGTAATCCGTATTTGGG (site AGCTCACCTCC)” the “recombinant UMI read abundance (log10)” value was 0.0182.
With “ACGAAGACATGGACCGGTTTTCCCGGTAATCCGTATTTGCA (site ACGAAGACTTG)” the “recombinant UMI read abundance (log10)” value was 2.78.
For “CGATCTACATGGACCGGTTTTCCCGGTAATCCGTATTTGTT (site CGATCCACTAA)”, the “recombinant UMI read abundance (log10)” value was 0.0103.
For “GGAGCACCATGGACCGGTTTTCCCGGTAATCCGTATTTGCA (site GGGGCACCTTG)”, the “recombinant UMI read abundance (log10)” value was 0.
With “GAAGGAGCATGGACCGGTTTTCCCGGTAATCCGTATTTGTA (site GAAGGAGCTTA)” the “recombinant UMI read abundance (log10)” value was 2.33.
For “ACACGATCATGGACCGGTTTTCCCGGTAATCCGTATTTGTC (site ACACGAGCTGA)”, the “recombinant UMI read abundance (log10)” value was 0.
For “CGGGAGTCATGGACCGGTTTTCCCGGTAATCCGTATTTGCG (site CGGGAGTCTTG)”, the “recombinant UMI read abundance (log10)” value was 0.888.
In the case of “CGCGGTACATGGACCGGTTTTCCCGGTAATCCGTATTTGCT (site CGCGGTACTAG)”, the “recombinant UMI read abundance (log10)” value is reported as 1.92.
With “CTTCTCCCATGGACCGGTTTTCCCGGTAATCCGTATTTGTA (site CTTCTCCCTTA)” the “recombinant UMI read abundance (log10)” value was 0.487.
With “CAAGAAGCATGGACCGGTTTTCCCGGTAATCCGTATTTGCT (site CAAGTAGCTAG)” the “recombinant UMI read abundance (log10)” value was 1.17.
In the case of “GATTGGCCATGGACCGGTTTTCCCGGTAATCCGTATTTGCA (site GAGTGGCCTTG)”, the “recombinant UMI read abundance (log10)” value is reported as 0.
For “TTAGTCTCATGGACCGGTTTTCCCGGTAATCCGTATTTGAC (site TTAGTCTCTGT)”, the “recombinant UMI read abundance (log10)” value was 3.02.
In the case of “CATGTAACATGGACCGGTTTTCCCGGTAATCCGTATTTGCT (site CATGTAACTAG)”, the “recombinant UMI read abundance (log10)” value is reported as 2.28.
With “CGAGAGTCATGGACCGGTTTTCCCGGTAATCCGTATTTGCC (site CGTGAGTCTGG)” the “recombinant UMI read abundance (log10)” value was 2.4.
In the case of “CTTCAATCATGGACCGGTTTTCCCGGTAATCCGTATTTGGT (site CTTCAATCTAC)”, the “recombinant UMI read abundance (log10)” value is reported as 1.96.
In the case of “TGCACACCATGGACCGGTTTTCCCGGTAATCCGTATTTGAC (site TGGACACCTGT)”, the “recombinant UMI read abundance (log10)” value is reported as 0.
In the case of “GAAGTCACATGGACCGGTTTTCCCGGTAATCCGTATTTGGG (site TAAGTCACTCC)”, the “recombinant UMI read abundance (log10)” value is reported as 0.221.
With “CAAGTCTCATGGACCGGTTTTCCCGGTAATCCGTATTTGGG (site CAAGTCGCTCC)” the “recombinant UMI read abundance (log10)” value was 0.02.
In the case of “TTCCCTACATGGACCGGTTTTCCCGGTAATCCGTATTTGAG (site CTCCCTACTCT)”, the “recombinant UMI read abundance (log10)” value is reported as 0.0509.
With “CTTAGATCATGGACCGGTTTTCCCGGTAATCCGTATTTGGG (site CTTAGATCTCC)” the “recombinant UMI read abundance (log10)” value was 0.475.
With “CAAAATCCATGGACCGGTTTTCCCGGTAATCCGTATTTGTA (site CAAAATCCTTA)” the “recombinant UMI read abundance (log10)” value was 1.8.
With “TGGCCGGCATGGACCGGTTTTCCCGGTAATCCGTATTTGGC (site GGGCCGGCTGC)” the “recombinant UMI read abundance (log10)” value was 0.
For “CTGCTACCATGGACCGGTTTTCCCGGTAATCCGTATTTGCT (site CTGCTACCTAA)”, the “recombinant UMI read abundance (log10)” value was 0.0092.
With “CACAACACATGGACCGGTTTTCCCGGTAATCCGTATTTGAC (site CACAACACTGT)” the “recombinant UMI read abundance (log10)” value was 2.79.
In the case of “GACAAATCATGGACCGGTTTTCCCGGTAATCCGTATTTGGT (site GACAAATCTAC)”, the “recombinant UMI read abundance (log10)” value is reported as 0.59.
For “CAAGCGCCATGGACCGGTTTTCCCGGTAATCCGTATTTGTT (site CAAGCGCCTCA)”, the “recombinant UMI read abundance (log10)” value was 0.0113.
With “TGTACACCATGGACCGGTTTTCCCGGTAATCCGTATTTGGC (site TGTACACCTGT)” the “recombinant UMI read abundance (log10)” value was 0.
In the case of “AGCTCAGCATGGACCGGTTTTCCCGGTAATCCGTATTTGAG (site AGCTCAGCTCG)”, the “recombinant UMI read abundance (log10)” value is reported as 0.

Source: the supplement of paper PMC11208160
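Further: IS621 bridge recombinase in Escherichia coli cells against a fixed T5 target plasmid.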
